Reference: PubChem BioAssay AID2060621 (Molecular Pharmacology Branch, DTP, NCI, 2025)
Several values for one entry are separate records, joined by “and”; a condition that tells them apart may be missing. Equal values may be shown once. Blank lines part the entries; values can stand above or below the compound they belong to.

Tested on: 324938-238-R-J1-PDC complex spheroids viability
Assay: Anticancer human tumor 324938-238-R-J1-PDC patient-derived bladder carcinoma cell line growth inhibition [CLK]
Conditions: for viability, T/C: stronger effect = lower value
Method in brief: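 Patient-derived tumor cells grown as complex spheroids with HUVEC endothelial cells and mesenchymal stem cells, treated with drug combinations. Concentrations descend in half-log steps from near clinical Cmax, or from 10 microM if Cmax unknown.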

[1] = curve of first compound, second compound 0.0316 µM
[2] = curve of first compound, second compound 0.1 µM
[3] = curve of first compound, second compound 0.316 µM
[4] = curve of first compound, second compound 1 µM
[5] = curve of first compound, second compound 3.16 µM
[6] = curve of first compound, second compound 10 µM
[7] = second compound 0.0316 µM, first compound 0.0316 µM
[8] = second compound 0.0316 µM, first compound 0.1 µM
[9] = second compound 0.0316 µM, first compound 0.316 µM
[10] = second compound 0.0316 µM, first compound 1 µM
[11] = second compound 0.0316 µM, first compound 3.16 µM
[12] = second compound 0.0316 µM, first compound 10 µM
[13] = second compound 0.1 µM, first compound 0.0316 µM
[14] = second compound 0.1 µM, first compound 0.1 µM
[15] = second compound 0.1 µM, first compound 0.316 µM
[16] = second compound 0.1 µM, first compound 1 µM
[17] = second compound 0.1 µM, first compound 3.16 µM
[18] = second compound 0.1 µM, first compound 10 µM
[19] = second compound 0.316 µM, first compound 0.0316 µM
[20] = second compound 0.316 µM, first compound 0.1 µM
[21] = second compound 0.316 µM, first compound 0.316 µM
[22] = second compound 0.316 µM, first compound 1 µM
[23] = second compound 0.316 µM, first compound 3.16 µM
[24] = second compound 0.316 µM, first compound 10 µM
[25] = second compound 1 µM, first compound 0.0316 µM
[26] = second compound 1 µM, first compound 0.1 µM
[27] = second compound 1 µM, first compound 0.316 µM
[28] = second compound 1 µM, first compound 1 µM
[29] = second compound 1 µM, first compound 3.16 µM
[30] = second compound 1 µM, first compound 10 µM
[31] = second compound 3.16 µM, first compound 0.0316 µM
[32] = second compound 3.16 µM, first compound 0.1 µM
[33] = second compound 3.16 µM, first compound 0.316 µM
[34] = second compound 3.16 µM, first compound 1 µM
[35] = second compound 3.16 µM, first compound 3.16 µM
[36] = second compound 3.16 µM, first compound 10 µM
[37] = second compound 10 µM, first compound 0.0316 µM
[38] = second compound 10 µM, first compound 0.1 µM
[39] = second compound 10 µM, first compound 0.316 µM
[40] = second compound 10 µM, first compound 1 µM
[41] = second compound 10 µM, first compound 3.16 µM
[42] = second compound 10 µM, first compound 10 µM
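Note: viability read after seven days of drug exposure.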
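Throughout, for viability, T/C: 100% = DMSO vehicle control wells.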

SMILES: C#Cc1c(F)ccc2cc(O)cc(-c3ncc4c(N5CC6CCC(C5)N6)nc(OCC56CCCN5CC(F)C6)nc4c3F)c12 (stereo unspecified) + CN1CCN(c2cc(C(=O)Nc3cc4cc(-c5cnn(C)c5)ccc4cn3)ccn2)CC1
IC50 [1]: 5050 nM | IC50 [2]: 1240 nM | IC50 [3]: < 31.6 nM | IC50 [4]: < 31.6 nM | IC50 [5]: < 31.6 nM | IC50 [6]: < 31.6 nM | viability, T/C [7]: 77.5% | viability, T/C [8]: 86.1% | viability, T/C [9]: 74.5% | viability, T/C [10]: 69.9% | viability, T/C [11]: 56% | viability, T/C [12]: 41.4% | viability, T/C [13]: 57.3% | viability, T/C [14]: 51.8% | viability, T/C [15]: 52.7% | viability, T/C [16]: 52.8% | viability, T/C [17]: 38% | viability, T/C [18]: 32.7% | viability, T/C [19]: 28.2% | viability, T/C [20]: 28% | viability, T/C [21]: 22.2% | viability, T/C [22]: 23.9% | viability, T/C [23]: 21.5% | viability, T/C [24]: 19.4% | viability, T/C [25]: 2% | viability, T/C [26]: 2.51% | viability, T/C [27]: 2.35% | viability, T/C [28]: 2.31% | viability, T/C [29]: 1.37% | viability, T/C [30]: 0.75% | viability, T/C [31]: 0.13% | viability, T/C [32]: 0.3% | viability, T/C [33]: 0.16% | viability, T/C [34]: 0.11% | viability, T/C [35]: 0.15% | viability, T/C [36]: 0.14% | viability, T/C [37]: 0.11% | viability, T/C [38]: 0.16% | viability, T/C [39]: 1.1% | viability, T/C [40]: 0.14% | viability, T/C [41]: 0.15% | viability, T/C [42]: 0.24%

IC50 [1]: > 10000 nM | IC50 [2]: < 31.6 nM | IC50 [3]: < 31.6 nM | IC50 [4]: < 31.6 nM | IC50 [5]: < 31.6 nM | IC50 [6]: < 31.6 nM
SMILES: CC(CO)NC(=O)c1cc(-c2ccc(Cl)cc2)nn(-c2cnn(C)c2)c1=O (stereo unspecified) + CNC(=O)c1ccc(Nc2nc(OC3CCCC3)c3c(-c4ccc5nc(C)oc5c4)c[nH]c3n2)c(OC)c1
viability, T/C [7]: 82.2% | viability, T/C [8]: 90.3% | viability, T/C [9]: 89.1% | viability, T/C [10]: 81.1% | viability, T/C [11]: 66.1% | viability, T/C [12]: 50.6% | viability, T/C [13]: 28.9% | viability, T/C [14]: 33.2% | viability, T/C [15]: 34.6% | viability, T/C [16]: 35% | viability, T/C [17]: 29.4% | viability, T/C [18]: 28% | viability, T/C [19]: 19% | viability, T/C [20]: 19.3% | viability, T/C [21]: 21.6% | viability, T/C [22]: 18.7% | viability, T/C [23]: 19.1% | viability, T/C [24]: 21.1% | viability, T/C [25]: 16.4% | viability, T/C [26]: 16% | viability, T/C [27]: 15.9% | viability, T/C [28]: 16.9% | viability, T/C [29]: 18.4% | viability, T/C [30]: 18.6% | viability, T/C [31]: 15.9% | viability, T/C [32]: 15.5% | viability, T/C [33]: 15.1% | viability, T/C [34]: 16.2% | viability, T/C [35]: 18.1% | viability, T/C [36]: 17.6% | viability, T/C [37]: 17.3% | viability, T/C [38]: 16.3% | viability, T/C [39]: 15.2% | viability, T/C [40]: 16.5% | viability, T/C [41]: 17% | viability, T/C [42]: 15.6%

IC50 (curve of compound): 1420 nM and 1290 nM
SMILES: Nc1ccccc1NC(=O)c1ccc(CNC(=O)OCc2cccnc2)cc1
viability, T/C (compound 0.0316 µM): 90% and 75.9% | viability, T/C (compound 0.1 µM): 89.8% and 91.8% | viability, T/C (compound 0.316 µM): 83.1% and 73.8% | viability, T/C (compound 1 µM): 58% and 50.5% | viability, T/C (compound 3.16 µM): 29.4% and 33.5% | viability, T/C (compound 10 µM): 9.64% and 5.66%
